Assay results from patent publication US10364471B2, “Tumor suppressor REC8 as a biomarker for gastric cancer” (The Chinese University of Hong Kong, priority 2017, dated 2019).

Tested on: REC8 mRNA expression in gastric cancer cell lines
Experiment: Demethylation treatment with 5-Aza, REC8 mRNA by RT-PCR
Type: cell-based, human
Settings: 2 uM 5-Aza for 5 days
Experimental: Gastric cancer cells were treated with 2 uM DNA demethylation agent 5-Aza-2′-deoxycytidine (5-Aza) (Sigma-Aldrich, St Louis, Mo.) for 5 days and medium was refreshed every day.
Total RNA was extracted from cell pellets or tissues using Qiazol® reagent (Qiagen, Valencia, Calif.), and cDNA was synthesized using Transcriptor Reverse Transcriptase (Roche, Indianapolis, Ind.). RT-PCR was performed using the GoTaq® DNA polymerase (Promega). qPCR was performed using SYBR Green master mixture on HT7900 system (Applied Biosystems, Foster City, Calif.). Primers used are listed in Table 5 and also published previously.^7

Q: What does the source list for `Nc1ncn([C@H]2C[C@H](O)[C@@H](CO)O2)c(=O)n1` [5-Aza, 5-Aza-2′-deoxycytidine]?
A: REC8 mRNA expression (AGS with REC8 expression/unmethylated): had no effect; REC8 mRNA expression (cell lines with REC8 down-regulated/methylated (BGC823, SNU719, NCI-N87, MKN28, AGS-EBV)): restored
